Experimental data published in patent US20060069132A1, “Azolecarboxamide herbicides” (priority 2004, published 2006).

What was measured:
morningglory [1] = assay: Test C pre-/postemergence herbicide test; format: in vivo, Ipomoea coccinea; set-up: key to Plant response rating, Morningglory: 0 = no effect, 100 = complete control; details: for Morningglory plant response rating: 500 g ai/ha
Method in brief: (§1)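 Visual injury scores run from 0 (no effect) to 100 (complete control), assessed relative to untreated controls 12 to 14 days after treatment in the greenhouse. Chemicals were formulated in a non-phytotoxic solvent mixture with surfactant and applied to soil after planting or to emerged plants at the 1- to 4-leaf stage.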

giant foxtail = assay: Test A pre-/postemergence herbicide test; format: in vivo, Setaria faberi
Method in brief: (§2)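 Pre: seeded sandy loam, directed soil spray, compound in non-phytotoxic solvent + surfactant. Post: 1–2-leaf plants (2–10 cm), sprayed to runoff. Greenhouse ~10 d; visual injury vs untreated, 0–100 scale.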

johnsongrass = assay: Test C pre-/postemergence herbicide test; format: in vivo, Sorghum halepense; details: for Johnsongrass plant response rating: 500 g ai/ha
Method in brief: as §1

large crabgrass = assay: Test A pre-/postemergence herbicide test; format: in vivo, Digitaria sanguinalis
Method in brief: as §2

morningglory [2] = assay: Test A pre-/postemergence herbicide test; format: in vivo, Ipomoea spp.
Method in brief: as §2

bermudagrass = assay: Test C pre-/postemergence herbicide test; format: in vivo, Cynodon dactylon; details: for Bermudagrass plant response rating: 500 g ai/ha
Method in brief: as §1

Surinam grass = assay: Test C pre-/postemergence herbicide test; format: in vivo, Urochloa decumbens; details: for Surinam Grass plant response rating: 500 g ai/ha
Method in brief: as §1

velvetleaf = assay: Test C pre-/postemergence herbicide test; format: in vivo, Abutilon theophrasti; details: for Velvetleaf plant response rating: 500 g ai/ha
Method in brief: as §1

goosegrass = assay: Test C pre-/postemergence herbicide test; format: in vivo, Eleusine indica; details: for Goosegrass plant response rating: 500 g ai/ha
Method in brief: as §1

corn = assay: Test C pre-/postemergence herbicide test; format: in vivo, Zea mays; details: for Corn plant response rating: 500 g ai/ha
Method in brief: as §1

common ragweed = assay: Test C pre-/postemergence herbicide test; format: in vivo, Ambrosia elatior; set-up: key to Plant response rating, Ragweed: 0 = no effect, 100 = complete control; details: for Ragweed plant response rating: 500 g ai/ha
Method in brief: as §1

[3] = Postemergence, 250 g ai/ha, scale 0 to 100, 0 no effect, 100 complete control
[4] = postemergence, 125 g ai/ha, scale 0 to 100
[5] = postemergence, 62 g ai/ha, scale 0 to 100
[6] = Postemergence, 500 g ai/ha, 0 to 100 scale, 0 no effect, 100 complete control
[7] = Postemergence, 2000 g ai/ha, 0 to 100 scale, 0 no effect, 100 complete control
[8] = Preemergence, 500 g ai/ha, visual rating, 0 to 100 scale (0 no effect, 100 complete control)
[9] = Preemergence, 2000 g ai/ha, 0 to 100 scale, 0 no effect, 100 complete control
[10] = 125 g ai/ha, scale 0 (no effect) to 100 (complete control), visual, 12 to 14 days, preemergence
[11] = Preemergence, scale 0 to 100, 0 no effect, 100 complete control
[12] = Preemergence, 2000 g ai/ha, visual rating, 0 to 100 scale (0 no effect, 100 complete control)
[13] = 250 g ai/ha, scale 0 to 100 (0 no effect, 100 complete control), visual, 12 to 14 days, preemergence
[14] = 62 g ai/ha, preemergence, scale 0 to 100
[15] = 62 g ai/ha, preemergence, scale 0 to 100, 0 no effect, 100 complete control
[16] = 250 g ai/ha, scale 0-100, preemergence
[17] = preemergence, 500 g ai/ha, visual injury, 0 to 100 scale (0 no effect, 100 complete control)

C=CCOC(=O)c1cccc(NC(=O)c2cc(C(C)(C)C)nn2CC)c1 [Compound 85]
Morningglory plant response rating (morningglory [1]; Postemergence, scale 0 to 100): 80 | Plant response rating, Morningglory (morningglory [1]; [3]): 60 | Plant response rating, Morningglory (morningglory [1]; [4]): 40 | Plant response rating, Morningglory (morningglory [1]; [5]): 10 | Foxtail, Giant plant response rating (giant foxtail; [6]): 20 | Plant response rating, Foxtail, Giant (giant foxtail; [7]): 30 | Foxtail, Giant plant response rating (giant foxtail; [8]): 0 | Foxtail, Giant plant response rating (giant foxtail; [9]): 0 | Johnsongrass plant response rating (johnsongrass; Postemergence, scale 0 to 100): 80 | Plant response rating, Johnsongrass (johnsongrass; [3]): 20 | Plant response rating, Johnsongrass (johnsongrass; [4]): 10 | Plant response rating, Johnsongrass (johnsongrass; [5]): 10 | Crabgrass, Large plant response rating (large crabgrass; [6]): 20 | Plant response rating, Crabgrass, Large (large crabgrass; [7]): 30 | Crabgrass, Large plant response rating (large crabgrass; [8]): 0 | Crabgrass, Large plant response rating (large crabgrass; [9]): 5 | Morningglory plant response rating (morningglory [2]; [6]): 20 | Plant response rating, Morningglory (morningglory [2]; [7]): 25 | Morningglory plant response rating (morningglory [2]; [8]): 0 | Morningglory plant response rating (morningglory [2]; [9]): 5 | Bermudagrass plant response rating (bermudagrass; Postemergence, scale 0 to 100): 70 | Plant response rating, Bermudagrass (bermudagrass; [4]): 65 | Plant response rating, Bermudagrass (bermudagrass; [5]): 0 | Surinam Grass plant response rating (Surinam grass; Postemergence, scale 0 to 100): 80 | Plant response rating, Surinam Grass (Surinam grass; [3]): 80 | Plant response rating, Surinam Grass (Surinam grass; [4]): 30 | Plant response rating, Surinam Grass (Surinam grass; [5]): 25 | Velvetleaf plant response rating (velvetleaf; Postemergence, scale 0 to 100): 85 | Plant response rating, Velvetleaf (velvetleaf; [3]): 80 | Plant response rating, Velvetleaf (velvetleaf; [4]): 75 | Plant response rating, Velvetleaf (velvetleaf; [5]): 60 | Goosegrass plant response rating (goosegrass; Postemergence, scale 0 to 100): 60 | Plant response rating, Goosegrass (goosegrass; [3]): 60 | Plant response rating, Goosegrass (goosegrass; [4]): 40 | Plant response rating, Goosegrass (goosegrass; [5]): 35 | Corn plant response rating (corn; Postemergence, scale 0 to 100): 45 | Plant response rating, Corn (corn; [3]): 35 | Plant response rating, Corn (corn; [4]): 30 | Plant response rating, Corn (corn; [5]): 30 | Ragweed plant response rating (common ragweed; Postemergence, scale 0 to 100): 60 | Plant response rating, Ragweed (common ragweed; [3]): 40 | Plant response rating, Ragweed (common ragweed; [4]): 10 | Plant response rating, Ragweed (common ragweed; [5]): 10

CCN(CC)C(=O)c1cccc(NC(=O)c2cc(C(C)(C)C)nn2CC)n1 [Compound 145]
Plant response rating (0 = no effect, 100 = complete control), Morningglory (morningglory [1]; 62 g ai/ha, preemergence): 0 | Plant response rating, Morningglory (morningglory [1]; [10]): 0 | Morningglory plant response rating (morningglory [1]; [11]): 30 | Foxtail, Giant plant response rating (giant foxtail; [6]): 40 | Plant response rating, Foxtail, Giant (giant foxtail; [7]): 60 | Foxtail, Giant plant response rating (giant foxtail; [8]): 85 | Foxtail, Giant plant response rating (giant foxtail; [12]): 100 | Plant response rating (0 = no effect, 100 = complete control), Johnsongrass (johnsongrass; 62 g ai/ha, preemergence): 50 | Plant response rating, Johnsongrass (johnsongrass; [10]): 65 | Johnsongrass plant response rating (johnsongrass; [11]): 90 | Crabgrass, Large plant response rating (large crabgrass; [6]): 30 | Plant response rating, Crabgrass, Large (large crabgrass; [7]): 85 | Crabgrass, Large plant response rating (large crabgrass; [8]): 70 | Crabgrass, Large plant response rating (large crabgrass; [12]): 90 | Morningglory plant response rating (morningglory [2]; [6]): 15 | Plant response rating, Morningglory (morningglory [2]; [7]): 30 | Morningglory plant response rating (morningglory [2]; [8]): 20 | Morningglory plant response rating (morningglory [2]; [12]): 25 | Plant response rating (0 = no effect, 100 = complete control), Bermudagrass (bermudagrass; 62 g ai/ha, preemergence): 20 | Plant response rating, Bermudagrass (bermudagrass; [10]): 60 | Plant response rating, Bermudagrass (bermudagrass; [13]): 80 | Bermudagrass plant response rating (bermudagrass; [11]): 90 | Plant response rating (0 = no effect, 100 = complete control), Surinam Grass (Surinam grass; 62 g ai/ha, preemergence): 0 | Plant response rating, Surinam Grass (Surinam grass; [10]): 50 | Surinam Grass plant response rating (Surinam grass; [11]): 70 | Plant response rating, Velvetleaf (velvetleaf; [10]): 20 | Velvetleaf plant response rating (velvetleaf; [11]): 100 | Plant response rating (0 = no effect, 100 = complete control), Goosegrass (goosegrass; 62 g ai/ha, preemergence): 50 | Plant response rating, Goosegrass (goosegrass; [10]): 70 | Goosegrass plant response rating (goosegrass; [11]): 80 | Plant response rating (0 = no effect, 100 = complete control), Corn (corn; 62 g ai/ha, preemergence): 0 | Plant response rating, Corn (corn; [10]): 0 | Plant response rating, Corn (corn; [13]): 5 | Corn plant response rating (corn; [11]): 20 | Plant response rating (0 = no effect, 100 = complete control), Ragweed (common ragweed; 62 g ai/ha, preemergence): 0 | Plant response rating, Ragweed (common ragweed; [10]): 0 | Ragweed plant response rating (common ragweed; [11]): 20

CCNC(=O)c1cc(C)nc(NC(=O)c2cc(C(C)(C)C)nn2CC)c1 [Compound 149]
Plant response rating, Morningglory (morningglory [1]; [14]): 0 | Plant response rating, Morningglory (morningglory [1]; [10]): 5 | Morningglory plant response rating (morningglory [1]; [11]): 60 | Foxtail, Giant plant response rating (giant foxtail; [6]): 40 | Plant response rating, Foxtail, Giant (giant foxtail; [7]): 65 | Foxtail, Giant plant response rating (giant foxtail; [8]): 70 | Foxtail, Giant plant response rating (giant foxtail; [12]): 100 | Plant response rating, Johnsongrass (johnsongrass; [14]): 10 | Plant response rating, Johnsongrass (johnsongrass; [10]): 60 | Johnsongrass plant response rating (johnsongrass; [11]): 100 | Crabgrass, Large plant response rating (large crabgrass; [6]): 40 | Plant response rating, Crabgrass, Large (large crabgrass; [7]): 75 | Crabgrass, Large plant response rating (large crabgrass; [8]): 95 | Crabgrass, Large plant response rating (large crabgrass; [12]): 100 | Morningglory plant response rating (morningglory [2]; [6]): 30 | Plant response rating, Morningglory (morningglory [2]; [7]): 60 | Morningglory plant response rating (morningglory [2]; [8]): 30 | Morningglory plant response rating (morningglory [2]; [12]): 65 | Plant response rating, Bermudagrass (bermudagrass; [15]): 30 | Plant response rating, Bermudagrass (bermudagrass; [10]): 90 | Plant response rating, Bermudagrass (bermudagrass; [13]): 90 | Bermudagrass plant response rating (bermudagrass; [11]): 95 | Plant response rating, Surinam Grass (Surinam grass; [14]): 0 | Plant response rating, Surinam Grass (Surinam grass; [10]): 5 | Surinam Grass plant response rating (Surinam grass; [11]): 85 | Plant response rating, Velvetleaf (velvetleaf; [14]): 0 | Plant response rating, Velvetleaf (velvetleaf; [10]): 0 | Velvetleaf plant response rating (velvetleaf; [11]): 60 | Plant response rating, Goosegrass (goosegrass; [14]): 10 | Plant response rating, Goosegrass (goosegrass; [10]): 70 | Goosegrass plant response rating (goosegrass; [11]): 90 | Plant response rating, Corn (corn; [14]): 0 | Plant response rating, Corn (corn; [10]): 0 | Plant response rating, Corn (corn; [13]): 10 | Corn plant response rating (corn; [11]): 10 | Plant response rating, Ragweed (common ragweed; [14]): 0 | Plant response rating, Ragweed (common ragweed; [10]): 0 | Ragweed plant response rating (common ragweed; [11]): 5

C=CCNC(=O)c1cccc(NC(=O)c2sc(C(C)(C)C)nc2C)c1 [Compound 202]
Plant response rating, Morningglory (morningglory [1]; [14]): 0 | Plant response rating, Morningglory (morningglory [1]; [10]): 55 | Plant response rating, Morningglory (morningglory [1]; [16]): 80 | Morningglory plant response rating (morningglory [1]; [11]): 85 | Foxtail, Giant plant response rating (giant foxtail; [6]): 30 | Plant response rating, Foxtail, Giant (giant foxtail; [7]): 50 | Foxtail, Giant plant response rating (giant foxtail; [12]): 80 | Foxtail, Giant plant response rating (giant foxtail; [17]): 55 | Plant response rating, Johnsongrass (johnsongrass; [14]): 0 | Plant response rating, Johnsongrass (johnsongrass; [10]): 40 | Plant response rating, Johnsongrass (johnsongrass; [16]): 70 | Johnsongrass plant response rating (johnsongrass; [11]): 75 | Crabgrass, Large plant response rating (large crabgrass; [6]): 30 | Plant response rating, Crabgrass, Large (large crabgrass; [7]): 65 | Crabgrass, Large plant response rating (large crabgrass; [12]): 100 | Crabgrass, Large plant response rating (large crabgrass; [17]): 85 | Morningglory plant response rating (morningglory [2]; [6]): 75 | Plant response rating, Morningglory (morningglory [2]; [7]): 75 | Morningglory plant response rating (morningglory [2]; [12]): 70 | Morningglory plant response rating (morningglory [2]; [17]): 15 | Plant response rating, Bermudagrass (bermudagrass; [15]): 20 | Plant response rating, Bermudagrass (bermudagrass; [10]): 85 | Plant response rating, Bermudagrass (bermudagrass; [16]): 95 | Bermudagrass plant response rating (bermudagrass; [11]): 100 | Plant response rating, Surinam Grass (Surinam grass; [14]): 10 | Plant response rating, Surinam Grass (Surinam grass; [10]): 20 | Plant response rating, Surinam Grass (Surinam grass; [16]): 40 | Surinam Grass plant response rating (Surinam grass; [11]): 60 | Plant response rating, Velvetleaf (velvetleaf; [14]): 5 | Plant response rating, Velvetleaf (velvetleaf; [10]): 10 | Plant response rating, Velvetleaf (velvetleaf; [16]): 100 | Velvetleaf plant response rating (velvetleaf; [11]): 100 | Plant response rating, Goosegrass (goosegrass; [14]): 20 | Plant response rating, Goosegrass (goosegrass; [10]): 85 | Plant response rating, Goosegrass (goosegrass; [16]): 90 | Goosegrass plant response rating (goosegrass; [11]): 95 | Plant response rating, Corn (corn; [14]): 0 | Plant response rating, Corn (corn; [10]): 0 | Plant response rating, Corn (corn; [16]): 0 | Corn plant response rating (corn; [11]): 10 | Plant response rating, Ragweed (common ragweed; [14]): 0 | Plant response rating, Ragweed (common ragweed; [10]): 80 | Plant response rating, Ragweed (common ragweed; [16]): 95 | Ragweed plant response rating (common ragweed; [11]): 95
